Test results: patent publication US20020137929A1, “1 - (3-heterocyclylphenyl) isothiourea, -isourea, -guanidine and -amidine herbicidal agents” (Intellectual Property Department, BASF Aktiengesellschaft, priority 1998, published 2002)

Key:
[1] = tested on: IPOHE (Morningglory, Ivyleaf); experiment: Preemergence herbicidal evaluation; assay type: in vivo, Ipomoea hederacea; conditions: rated 4-5 weeks after treatment
Source text: (§1) Results of herbicide evaluation are expressed on a rating scale (0-9). The scale is based upon a visual observation of plant stand, vigor, malformation, size, chlorosis and overall plant appearance as compared with a control.
(§2) The preemergence herbicidal activity of the test compounds of the present invention is exemplified by the following tests in which the seeds of a variety of monocotyledonous and dicotyledonous plants are separately mixed with potting soil and planted on top of approximately one inch of soil in separate pint cups. After planting, the cups are sprayed with the selected aqueous acetone solution containing test compound in sufficient quantity to provide the equivalent of about 0.0156 to 0.500 kg per hectare of test compound per cup. The treated cups are then placed on greenhouse benches, watered and cared for in accordance with conventional greenhouse procedures. From four to five weeks after treatment, the tests are terminated and each cup is examined and rated according to the rating system provided in Example 37.
(§3) The compounds evaluated are reported by compound number given in Example 37.

ABUTH (Velvetleaf) = experiment: Postemergence herbicidal evaluation; assay type: in vivo, Abutilon theophrasti; conditions: postemergence
Procedure: (§4) In the tests, seedling plants are grown in jiffy flats for about two weeks. The test compounds are dispersed in 50/50 acetone/water mixtures containing 0.5% TWEEN®20, a polyoxyethylene sorbitan monolaurate surfactant of Atlas Chemical Industries, in sufficient quantities to provide the equivalent of about 0.0156 kg to 0.500 kg per hectare of active compound when applied to the plants through a spray nozzle operating at 40 psi for a predetermined time. After spraying, the plants are placed on greenhouse benches and are cared for in accordance with conventional greenhouse procedures. From four to five weeks after treatment, the seedling plants are examined and rated according to the rating system set forth below. Where more than one test is involved for a given compound, the data are averaged.
(§5) Plant species employed in these evaluations are reported by header abbreviation, common name and scientific name.
as §1

[2] = tested on: GLXMAW (Soybean, Williams); experiment: Postemergence herbicidal evaluation; assay type: in vivo, Glycine max, (L.) Merr. cv Williams; conditions: postemergence
Procedure: as §4, §5, §1

[3] = tested on: IPOHE (Morningglory, Ivyleaf); experiment: Postemergence herbicidal evaluation; assay type: in vivo, Ipomoea hederacea; conditions: postemergence
Procedure: as §4, §5, §1

CASOB (Sicklepod) = experiment: Preemergence herbicidal evaluation; assay type: in vivo, Cassia obtusifolia; conditions: rated 4-5 weeks after treatment
Source text: as §1, §2, §3

GALAP (Galium) = experiment: Preemergence herbicidal evaluation; assay type: in vivo, Galium aparine; conditions: rated 4-5 weeks after treatment
Source text: as §1, §2, §3

[4] = tested on: CHEAL (Lambsquarters, Common); experiment: Preemergence herbicidal evaluation; assay type: in vivo, Chenopodium album; conditions: rated 4-5 weeks after treatment
Source text: as §1, §2, §3

ZEAMX (Corn, Field) = experiment: Preemergence herbicidal evaluation; assay type: in vivo, Zea mays; conditions: rated 4-5 weeks after treatment
Source text: as §1, §2, §3

SETVI (Foxtail, Green) = experiment: Postemergence herbicidal evaluation; assay type: in vivo, Setaria viridis; conditions: postemergence
Procedure: as §4, §5, §1

ECHCG (Barnyardgrass) [5] = experiment: Preemergence herbicidal evaluation; assay type: in vivo, Echinochloa crus-galli; conditions: rated 4-5 weeks after treatment
Source text: as §1, §2, §3

AMBEL (Ragweed, Common) = experiment: Postemergence herbicidal evaluation; assay type: in vivo, Ambrosia artemisifolia; conditions: postemergence
Procedure: as §4, §5, §1

ECHCG (Barnyardgrass) [6] = experiment: Postemergence herbicidal evaluation; assay type: in vivo, Echinochloa crus-galli; conditions: postemergence
Procedure: as §4, §5, §1

[7] = tested on: TRZAWR (Wheat, Winter, cv Riband); experiment: Postemergence herbicidal evaluation; assay type: in vivo, Triticum aestivum; conditions: postemergence
Procedure: as §4, §5, §1

COC(=O)COC(=O)CN1C(=O)CSC1=Nc1cc(-n2c(=O)cc(C(F)(F)F)n(C)c2=O)c(F)cc1Cl [Compound 108, 2-{{2-Chloro-5-[3,6-dihydro-3-methyl-2,6-dioxo-4-(trifluoromethyl)-1(2H)-pyrimidinyl]-4-fluorophenyl}imino}-4-oxo-3-thiazolidineacetic acid, ester with methyl glycolate]
3.5: Herbicidal rating TRZAWR ([7]; rate 0.0315 kg/ha)
3.0: Herbicidal rating ECHCG (ECHCG (Barnyardgrass) [6]; rate 0.0158 kg/ha) | Herbicidal rating TRZAWR ([7]; rate 0.0158 kg/ha)
2.0: Preemergence herbicidal rating GALAP (GALAP (Galium); rate 0.0313 kg/ha) | Preemergence herbicidal rating ZEAMX (ZEAMX (Corn, Field); rate 0.2500 kg/ha)
9.0: Preemergence herbicidal rating IPOHE ([1]; rate 0.2500 kg/ha) | Herbicidal rating ABUTH (ABUTH (Velvetleaf); rate 0.0158 kg/ha) | Herbicidal rating ABUTH (ABUTH (Velvetleaf); rate 0.0315 kg/ha) | Herbicidal rating ABUTH (ABUTH (Velvetleaf); rate 0.0630 kg/ha) | Herbicidal rating IPOHE ([3]; rate 0.0158 kg/ha) | Herbicidal rating IPOHE ([3]; rate 0.0315 kg/ha) | Herbicidal rating IPOHE ([3]; rate 0.0630 kg/ha) | Preemergence herbicidal rating CASOB (CASOB (Sicklepod); rate 0.2500 kg/ha) | Preemergence herbicidal rating GALAP (GALAP (Galium); rate 0.2500 kg/ha) | Preemergence herbicidal rating CHEAL ([4]; rate 0.0625 kg/ha) | Preemergence herbicidal rating CHEAL ([4]; rate 0.1250 kg/ha) | Preemergence herbicidal rating CHEAL ([4]; rate 0.2500 kg/ha)
5.5: Herbicidal rating GLXMAW ([2]; rate 0.0315 kg/ha)
0.0: Preemergence herbicidal rating IPOHE ([1]; rate 0.0156 kg/ha) | Preemergence herbicidal rating IPOHE ([1]; rate 0.0313 kg/ha) | Preemergence herbicidal rating IPOHE ([1]; rate 0.0625 kg/ha) | Preemergence herbicidal rating CASOB (CASOB (Sicklepod); rate 0.0156 kg/ha) | Preemergence herbicidal rating CASOB (CASOB (Sicklepod); rate 0.0313 kg/ha) | Preemergence herbicidal rating CASOB (CASOB (Sicklepod); rate 0.0625 kg/ha) | Preemergence herbicidal rating CASOB (CASOB (Sicklepod); rate 0.1250 kg/ha) | Preemergence herbicidal rating CHEAL ([4]; rate 0.0313 kg/ha) | Preemergence herbicidal rating ZEAMX (ZEAMX (Corn, Field); rate 0.0156 kg/ha) | Preemergence herbicidal rating ZEAMX (ZEAMX (Corn, Field); rate 0.0313 kg/ha) | Preemergence herbicidal rating ZEAMX (ZEAMX (Corn, Field); rate 0.0625 kg/ha) | Preemergence herbicidal rating ECHCG (ECHCG (Barnyardgrass) [5]; rate 0.0156 kg/ha) | Preemergence herbicidal rating ECHCG (ECHCG (Barnyardgrass) [5]; rate 0.0313 kg/ha) | Preemergence herbicidal rating ECHCG (ECHCG (Barnyardgrass) [5]; rate 0.0625 kg/ha) | Preemergence herbicidal rating ECHCG (ECHCG (Barnyardgrass) [5]; rate 0.1250 kg/ha)
5.0: Herbicidal rating GLXMAW ([2]; rate 0.0158 kg/ha) | Herbicidal rating AMBEL (AMBEL (Ragweed, Common); rate 0.0315 kg/ha) | Herbicidal rating AMBEL (AMBEL (Ragweed, Common); rate 0.0630 kg/ha)
4.5: Herbicidal rating TRZAWR ([7]; rate 0.0630 kg/ha)
6.0: Herbicidal rating GLXMAW ([2]; rate 0.0630 kg/ha) | Preemergence herbicidal rating GALAP (GALAP (Galium); rate 0.0625 kg/ha) | Herbicidal rating SETVI (SETVI (Foxtail, Green); rate 0.0315 kg/ha)
7.0: Preemergence herbicidal rating GALAP (GALAP (Galium); rate 0.1250 kg/ha) | Herbicidal rating SETVI (SETVI (Foxtail, Green); rate 0.0630 kg/ha)
1.0: Preemergence herbicidal rating GALAP (GALAP (Galium); rate 0.0156 kg/ha) | Preemergence herbicidal rating ZEAMX (ZEAMX (Corn, Field); rate 0.1250 kg/ha) | Preemergence herbicidal rating ECHCG (ECHCG (Barnyardgrass) [5]; rate 0.2500 kg/ha)
4.0: Preemergence herbicidal rating IPOHE ([1]; rate 0.1250 kg/ha) | Herbicidal rating SETVI (SETVI (Foxtail, Green); rate 0.0158 kg/ha) | Herbicidal rating AMBEL (AMBEL (Ragweed, Common); rate 0.0158 kg/ha) | Herbicidal rating ECHCG (ECHCG (Barnyardgrass) [6]; rate 0.0315 kg/ha) | Herbicidal rating ECHCG (ECHCG (Barnyardgrass) [6]; rate 0.0630 kg/ha)
